Laboratory results taken from ChEMBL document CHEMBL2169878 (J Med Chem, 2012).

Assays:
Salmonella typhimurium [1] = test: Mutagenicity against Salmonella typhimurium TA100 assessed as revertants at 20 uM incubated for 90 mins followed by drug washout measured after 2 days relative to positive control; type: toxicity, organism-based; settings: salmonella enterica subsp. enterica serovar typhimurium, 1.5 h
[2] = Cytotoxicity against mouse NIH3T3 cells after 24 hrs by neutral red dye uptake assay; type: cell-based; settings: read-out: TC50
[3] = Half life in po dosed human plasma; type: ADME, organism-based
Salmonella typhimurium [4] = test: Mutagenicity against Salmonella typhimurium TA100 assessed as revertants at 10 uM incubated for 90 mins followed by drug washout measured after 2 days relative to positive control; type: toxicity, organism-based; settings: salmonella enterica subsp. enterica serovar typhimurium
Salmonella typhimurium [5] = test: Mutagenicity against Salmonella typhimurium TA100 assessed as revertants at 5 uM incubated for 90 mins followed by drug washout measured after 2 days relative to positive control; type: toxicity, organism-based; settings: salmonella enterica subsp. enterica serovar typhimurium, 1.5 h
Salmonella typhimurium [6] = test: Mutagenicity against Salmonella typhimurium TA100 assessed as revertants at 80 uM incubated for 90 mins followed by drug washout measured after 2 days relative to positive control; type: toxicity, organism-based; settings: salmonella enterica subsp. enterica serovar typhimurium
Homo sapiens [7] = test: Volume of distribution in po dosed human measured in plasma; type: ADME, organism-based; settings: in vivo
Salmonella typhimurium [8] = test: Mutagenicity against Salmonella typhimurium TA98 assessed as revertants at 10 uM incubated for 90 mins followed by drug washout measured after 2 days relative to positive control; type: toxicity, organism-based; settings: salmonella enterica subsp. enterica serovar typhimurium, 1.5 h
Salmonella typhimurium [9] = test: Mutagenicity against Salmonella typhimurium TA100 assessed as revertants at […] incubated for 90 mins followed by drug washout measured after 2 days relative to positive control; type: toxicity, organism-based; settings: salmonella enterica subsp. enterica serovar typhimurium
Homo sapiens [10] = test: Volume of distribution in po dosed human measured in whole blood; type: ADME, organism-based; settings: in vivo
Salmonella typhimurium [11] = test: Mutagenicity against Salmonella typhimurium TA98 assessed as revertants at 5 uM incubated for 90 mins followed by drug washout measured after 2 days relative to positive control; type: toxicity, organism-based; settings: salmonella enterica subsp. enterica serovar typhimurium, 1.5 h
[12] = Cytotoxicity against human HepG2 cells after 24 hrs by neutral red dye uptake assay; type: cell-based; settings: read-out: TC50
Salmonella typhimurium [13] = test: Mutagenicity against Salmonella typhimurium TA98 assessed as revertants at […] incubated for 90 mins followed by drug washout measured after 2 days relative to positive control; type: toxicity, organism-based; settings: salmonella enterica subsp. enterica serovar typhimurium
Salmonella typhimurium [14] = test: Mutagenicity against Salmonella typhimurium TA100 assessed as revertants at 40 uM incubated for 90 mins followed by drug washout measured after 2 days relative to positive control; type: toxicity, organism-based; settings: salmonella enterica subsp. enterica serovar typhimurium
Salmonella typhimurium [15] = test: Mutagenicity against Salmonella typhimurium TA98 assessed as revertants at 80 uM incubated for 90 mins followed by drug washout measured after 2 days relative to positive control; type: toxicity, organism-based; settings: salmonella enterica subsp. enterica serovar typhimurium, 1.5 h
Salmonella typhimurium [16] = test: Mutagenicity against Salmonella typhimurium TA98 assessed as revertants at 20 uM incubated for 90 mins followed by drug washout measured after 2 days relative to positive control; type: toxicity, organism-based; settings: salmonella enterica subsp. enterica serovar typhimurium, 1.5 h
Salmonella typhimurium [17] = test: Mutagenicity against Salmonella typhimurium TA98 assessed as revertants at 40 uM incubated for 90 mins followed by drug washout measured after 2 days relative to positive control; type: toxicity, organism-based; settings: salmonella enterica subsp. enterica serovar typhimurium

CCN(CC)CCCC(C)Nc1ccnc2cc(Cl)ccc12 (configuration not stated) [CHLOROQUINE]
Activity (Salmonella typhimurium [1]): 7%
CC50 at 24 h [2]: > 80 µM
half-life [3]: 20 days
Activity (Salmonella typhimurium [4]): 26%
Activity (Salmonella typhimurium [5]): 21%
Activity (Salmonella typhimurium [6]): 23%
Vd (Homo sapiens [7]): 200 L/kg
Activity (Salmonella typhimurium [8]): 61%
Activity (Salmonella typhimurium [9]): 36%
Vd (Homo sapiens [10]): 200 L/kg
Activity (Salmonella typhimurium [11]): 14%
CC50 at 24 h [12]: 4.3 µM
Activity (Salmonella typhimurium [13]): 24%
Activity (Salmonella typhimurium [14]): 38%
Activity (Salmonella typhimurium [15]): 50%
Activity (Salmonella typhimurium [16]): 29%
Activity (Salmonella typhimurium [17]): 19%
